Assay results as given in patent US6890923B2, “Compounds” (AstraZeneca AB, priority 2002, dated 2005).

CC(C)Cn1c(=O)n(C)c(=O)c2c(CCC(=O)O)c(Cc3ccccc3C(F)(F)F)sc21 [Example 28, 1,2,3,4-Tetrahydro-3-methyl-1-(2-methylpropyl)-2,4-dioxo-6-[[2-(trifluoromethyl)phenyl]methyl]-thieno[2,3-d]pyrimidine-5-propanoic acid]
melting point: 165 to 167 °C

CC(C)Cn1c(=O)n(C)c(=O)c2c(-c3ccsc3)c(Cc3ccccc3C(F)(F)F)sc21 [Example 6, 3-Methyl-1-(2-methylpropyl)-5-(3-thienyl)-6-[[2-(trifluoromethyl)phenyl]methyl]-thieno[2,3-d]pyrimidine-2,4(1H,3H)-dione]
melting point: 113 to 114 °C
